Experimental findings from BindingDB's records for doi:10.1016/j.bioorg.2015.05.010 (Universiti Teknologi Mara (Uitm), 2015) are described below.

The target in this test is T1, Beta-glucuronidase (Bos taurus, UniProt A3KMY8).
T1 sequence (A3KMY8 whole entry): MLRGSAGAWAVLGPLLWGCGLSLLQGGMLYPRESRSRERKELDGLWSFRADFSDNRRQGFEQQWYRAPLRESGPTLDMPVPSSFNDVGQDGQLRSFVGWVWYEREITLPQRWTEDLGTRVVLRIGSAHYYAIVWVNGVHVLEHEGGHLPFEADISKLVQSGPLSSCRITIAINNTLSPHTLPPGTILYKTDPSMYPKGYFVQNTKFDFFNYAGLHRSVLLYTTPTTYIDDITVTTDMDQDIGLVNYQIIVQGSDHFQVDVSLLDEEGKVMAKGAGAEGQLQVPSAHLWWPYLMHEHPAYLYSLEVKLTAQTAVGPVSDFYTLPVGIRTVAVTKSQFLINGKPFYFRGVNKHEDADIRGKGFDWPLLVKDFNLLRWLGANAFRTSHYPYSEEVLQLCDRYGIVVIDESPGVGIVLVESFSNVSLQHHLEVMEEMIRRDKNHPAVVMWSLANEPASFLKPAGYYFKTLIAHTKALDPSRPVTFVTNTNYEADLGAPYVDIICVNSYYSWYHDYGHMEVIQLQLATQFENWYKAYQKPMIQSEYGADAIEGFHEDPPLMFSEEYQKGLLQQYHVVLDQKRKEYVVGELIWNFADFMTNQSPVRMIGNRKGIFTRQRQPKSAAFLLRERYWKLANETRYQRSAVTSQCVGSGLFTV
Kind of test: Beta-glucuronidase Inhibition Assay. On the procedure: The total reaction volume was 250 µL. […] The reaction mixture contained 185 µL of 0.1 M acetate buffer, 5 µL of test compound solution, 10 µL of enzyme solution was incubated at 37 °C for 30 min. […] All assays were run in triplicate.
Regarding `COc1ccc(-c2nc3c(Cl)cc(Cl)cc3[nH]2)cc1O` [5-(4,6-dichloro-1H-benzo[d]imidazol-2-yl)-2-methoxyphenol (9)], the IC50 (as a rule, the concentration needed to halve the response being measured) is 86.3 µM.

Regarding `Oc1ccccc1-c1nc2cc(Cl)cc(Cl)c2[nH]1` [2-(4,6-dichloro-1H-benzo[d]imidazol-2-yl)phenol (1)], the IC50 stood at 4.48 µM.

`Clc1ccc(-c2nc3c(Cl)cc(Cl)cc3[nH]2)cc1` [4,6-Dichloro-2-(4-chlorophenyl)-1H-benzo[d]imidazole (12)] returned an IC50 of 36.1 µM.

The compound `Oc1cccc(-c2nc3c(Cl)cc(Cl)cc3[nH]2)c1O` [3-(4,6-dichloro-1H-benzo[d]imidazol-2-yl)benzene-1,2-diol (4)] returned an IC50 of 60.5 µM.

In the case of `Clc1cc(Cl)c2nc(-c3ccccn3)[nH]c2c1` [4,6-dichloro-2-(pyridin-2-yl)-1H-benzo[d]imidazole (19)], the IC50 is 86.1 µM.

Consider `Oc1ccc(-c2nc3c(Cl)cc(Cl)cc3[nH]2)c(O)c1` [4-(4,6-dichloro-1H-benzo[d]imidazol-2-yl)benzene-1,3-diol (6)], for which half-maximal inhibition (IC50) required 14.2 µM.

On to `Oc1cccc(-c2nc3c(Cl)cc(Cl)cc3[nH]2)c1` [3-(4,6-dichloro-1H-benzo[d]imidazol-2-yl)phenol (2)], for which the IC50 is 28.4 µM.

With `Oc1ccc(-c2nc3c(Cl)cc(Cl)cc3[nH]2)cc1` [4-(4,6-dichloro-1H-benzo[d]imidazol-2-yl)phenol (3)], the half-inhibitory concentration (IC50) stood at 14.2 µM.

In turn, `Oc1ccc(O)c(-c2nc3c(Cl)cc(Cl)cc3[nH]2)c1` [2-(4,6-dichloro-1H-benzo[d]imidazol-2-yl)benzene-1,4-diol (7)] had a concentration for half-maximal inhibition (IC50) of 11.5 µM.

Regarding `Oc1ccc(-c2nc3c(Cl)cc(Cl)cc3[nH]2)cc1O` [4-(4,6-dichloro-1H-benzo[d]imidazol-2-yl)benzene-1,2-diol (5)], the concentration for half-maximal inhibition (IC50) worked out at 46.1 µM.

Compound `COc1ccc(O)c(-c2nc3c(Cl)cc(Cl)cc3[nH]2)c1` [2-(4,6-dichloro-1H-benzo[d]imidazol-2-yl)-4-methoxyphenol (8)] gave an IC50 of 15.5 µM.
